What was measured:
MV4-11 = assay: CellTiter-Glo cell proliferation inhibition, MV4-11; assay type: cell-based, human; settings: for IC50: Homo sapiens, MV4-11 cells, 72 hours, CellTiter-Glo, read-out: IC50 (µM) M V4-11
Source text: (§1) In this study, the CellTiter-Glo® Luminescent Cell Viability Assay kit from Promega was used to evaluate the inhibitory effects of the disclosed compounds on the proliferation of cell lines KYSE520 (a human esophageal squamous cell carcinoma cell line dependent on SHP2 for growth), MeWo (a human malignant melanoma cell line), and MV4-11 (an RTK-mutant human acute monocytic leukemia cell line).
Using essentially the same experimental materials, MV4-11 cells (Nanjing Cobio Biotechnology Co., Ltd., Catalog #CBP60522) were treated similarly: when thawing the cells, the cryovial was rapidly shaken in a 37 °C water bath to thaw within 1 minute. The thawed cell suspension was mixed with IMDM culture medium containing 10% FBS (HyClone, Catalog #SH30228.01), centrifuged at 1000 rpm for 7 minutes, and the supernatant was discarded. The cell pellet was resuspended in 5 mL of complete culture medium (IMDM medium containing 10% FBS) placed in a cell culture flask with 25 cm^2 of bottom area, and cultured in a cell culture incubator at 37 °C, 95% humidity, and 5% CO2. Cell passaging was performed when the cell density reached approximately 10^6 cells/mL. During cell passaging, the old cell suspension was thoroughly mixed, 1/5 of the cell suspension was retained, and 4 mL of new complete culture medium was added. After thorough mixing, the cells were placed back in the cell culture incubator for further culture. Cell plating was performed when the cell density again reached approximately 10^6 cells/mL. During cell plating, following the cell passage method, 1/5 of the cell suspension was retained for continued culture, and the remaining 4/5 of the cell suspension was placed in a 15 mL centrifuge tube. Cell viability was determined using the trypan blue exclusion method to ensure that cell viability was above 90%. A cell suspension with a density of 1.11 × 10^5 viable cells/mL was prepared using complete culture medium. 90 µL of the cell suspension was added to a 96-well cell culture plate, resulting in a cell density of 10000 viable cells/well. A control group without cells and without compounds, containing only complete culture medium (i.e., culture medium control) and a control group without compounds but containing cells (i.e., cell control) were set up. The cell plate was incubated overnight in the cell culture incubator. First, a 10 mM stock solution of the compound (Example compound and positive control compound 11a-1) in DMSO was serially diluted with DMSO at a 3-fold dilution, down to the 9th concentrations. A 10th concentration containing only DMSO (without the compound) was also prepared as a control. Then, the DMSO solutions containing different concentrations of the compound were diluted 100-fold with complete culture medium, resulting in a DMSO concentration of 1% in each solution. Finally, 10 µL of each solution was added to the corresponding wells of a cell culture plate, resulting in an initial compound concentration of 10 µM, with a 3-fold dilution between adjacent concentrations, and a DMSO concentration of 0.1% in the cell culture plate. The cell plate was then incubated in a cell culture incubator for 72 hours.
(§2) For endpoint detection, CellTiter-Glo reagent (Promega, catalog number #G7573, CellTiter-Glo® Luminescent Cell Viability Assay Kit) was melt and each cell plate was moved to room temperature for equilibration for 30 minutes. 75 µL (KYSE520 cells) or 50 µL (MeWo cells and MV 4-11 cells) of CellTiter-Glo was added to each well of the corresponding cell plate. The plates were shaken on a track-mounted shaker for 2 minutes to fully lyse the cells. The cell plates were kept at room temperature for 8 minutes to stabilize the luminescence signal. A multi-mode microplate reader (PerkinEImer, Envision 2105 Multimode plate Read) was used to full-wavelength scan the luminescence value of each well. […]

MeWo = assay: CellTiter-Glo cell proliferation inhibition, MeWo; assay type: cell-based, human; settings: for IC50: MeWo cells, CellTiter-Glo
Procedure: as §1
Using essentially the same experimental materials, MeWo cells (ATCC, catalog #HTB-65) were treated similarly: when thawing the cells, the cryovial was rapidly shaken in a 37 °C water bath to thaw the cells within 1 minute. The thawed cell suspension was mixed with MEM/EBSS culture medium containing 10% FBS (HyClone, catalog #SH30024.01), centrifuged at 1000 rpm for 5 minutes, and the supernatant was discarded. The cell pellet was resuspended in 5 mL of complete culture medium (MEM/EBSS medium containing 10% FBS), placed in a cell culture flask with 25 cm^2 of bottom area, and cultured in a cell culture incubator at 37 °C, 95% humidity, and 5% CO2. Cell passaging was performed when the cell confluence reached approximately 80%. During cell passaging, the old culture medium was discarded, the cells were washed once with DPBS, and 1 mL of trypsin was added to digest the cells. When the cells dispersed into single cells and detached from the bottom of the cell culture flask, 3 mL of new complete culture medium was added to stop the digestion. After thoroughly mixing the cell suspension, 1/5 of the cell suspension was retained, 5 mL of new complete culture medium was added, and after thorough mixing, the cells were placed in a cell culture flask for further culture. Cell plating was performed when the cell confluence again reached approximately 80%. During cell plating, following the cell passaging method, 1/5 of the cell suspension was retained for further culture, and the remaining 4/5 of the cell suspension was placed in a 15 mL centrifuge tube. Cell viability was determined using the trypan blue exclusion method to ensure that cell viability was above 90%. A cell suspension with a density of 2.22 × 10^4 cells/mL was prepared using MEM/EBSS culture medium containing 5% FBS. 90 µL of the cell suspension was added to a 96-well cell culture plate, resulting in a cell density of 2000 viable cells/well in the cell culture plate. A control group without cells and without compounds, containing only complete culture medium (i.e., culture medium control), and a control group without compounds but containing cells (i.e., cell control) were set up. The cell plate was cultured overnight in the cell culture incubator. First, a 10 mM stock solution of the compound (Example compound and positive control compound 11a-1) in DMSO was serially diluted with DMSO at a 3-fold dilution, down to the 9th concentration. A 10th concentration containing only DMSO (without the compound) was also prepared as a control. Then, the DMSO solutions containing different concentrations of the compound were diluted 100-fold with complete culture medium, resulting in a 1% DMSO concentration in each solution. Finally, 10 µL of each solution was added to the corresponding wells of the cell culture plate, resulting in a starting compound concentration of 10 µM, with a 3-fold dilution between adjacent concentrations, and a 0.1% DMSO concentration in the cell culture plate. The cell plates were then incubated in a cell culture incubator for 72 hours.
as §2, with “signal.” for “signal. A multi-mode microplate reader (PerkinEImer, Envision 2105 Multimode plate Read) was used to full-wavelength scan the luminescence value of each well.”

| Structure (SMILES) | IC50 (MV4-11) | IC50 (MeWo; Homo sapiens, MeWo, 72 h) | IC50 against MV4-11 cells, fold lower than 11a-1 (MV4-11; relative to 11a-1 (5.13 µM)) | IC50 (MeWo; 72 hours) | IC50 against Mewo cells, fold lower than 11a-1 (MeWo; relative to 11a-1 (3.10 µM)) |
| --- | --- | --- | --- | --- | --- |
| O=C(Nc1ccc(-c2cc3cc(F)c(-c4nnn[nH]4)cc3n2C2CCC2)cc1)C(=O)Nc1ccc(N2CCC(C3COC3)CC2)cc1 [Example 20] | > 10 µM | 0.042 µM |  |  |  |
| O=C(Nc1ccc(-c2cc3cc(F)c(-c4nnn[nH]4)cc3n2C2CCC2)cc1)C(=O)Nc1ccc(N2CCC(CCO)CC2)cc1 [Example 25] | 0.108 µM | 0.04 µM |  |  |  |
| CC(C)(O)C1CCN(c2ccc(NC(=O)C(=O)Nc3ccc(-c4cc5cc(F)c(-c6nnn[nH]6)cc5n4C4CCC4)cc3)cc2)CC1 [Example 33] | > 10 µM | 0.117 µM |  |  |  |
| CC1(CO)CCN(c2ccc(NC(=O)C(=O)Nc3ccc(-c4cc5cc(F)c(-c6nnn[nH]6)cc5n4C4CCC4)cc3)cc2)CC1 [Example 40] | 0.269 µM | 0.073 µM |  |  |  |
| O=C(Nc1ccc(-c2cc3cc(F)c(-c4nnn[nH]4)cc3n2C2CCC2)cc1)C(=O)Nc1ccc(N2CC3(CCOCC3)C2)cc1 [Example 57] | 0.127 µM | 0.096 µM |  |  |  |
| O=C(Nc1ccc(-c2cc3cc(F)c(-c4nnn[nH]4)cc3n2C2CCC2)cc1)C(=O)Nc1ccc(N2CCC3(CCOC3)C2)cc1 (stereo not drawn) [Example 61] | 3.03 µM | 0.115 µM |  |  |  |
| O=C(Nc1ccc(-c2cc3cc(F)c(-c4nnn[nH]4)cc3n2C2CCC2)cc1)C(=O)Nc1ccc(N2CCC3(CCOC3)CC2)cc1 [Example 67] | > 10 µM | 0.038 µM |  |  |  |
| CC1(n2c(-c3ccc(NC(=O)C(=O)Nc4ccc(N5CCC6(CCOC6)CC5)cc4)cc3)cc3cc(F)c(-c4nnn[nH]4)cc32)CCC1 [Example 68] | 0.06 µM | 0.06 µM | 85 fold | 0.031 µM | 100 fold |
| CC1(n2c(-c3ccc(NC(=O)C(=O)Nc4ccc(N5CCC6(CCOC6)CC5)cc4)cc3)cc3cc(F)c(-c4nnn[nH]4)cc32)CC1 [Example 70] | 4.25 µM | 0.213 µM |  |  |  |
| O=C(Nc1ccc(-c2cc3cc(F)c(-c4nnn[nH]4)cc3n2C2CCC2)cc1)C(=O)Nc1ccc(N2CCC3(CCOCC3)CC2)cc1 [Example 76] | 0.173 µM | 0.041 µM |  |  |  |
| CC1(n2c(-c3ccc(NC(=O)C(=O)Nc4ccc(N5CCC6(CCOCC6)CC5)cc4)cc3)cc3cc(F)c(-c4nnn[nH]4)cc32)CCC1 [Example 77] | 0.094 µM | 0.034 µM |  |  |  |
| O=C(Nc1ccc(-c2cc3cc(F)c(-c4nnn[nH]4)cc3n2C2CCC2)cc1)C(=O)Nc1ccc(N2CCC3(CC(O)C3)C2)cc1 (stereo not drawn) [Example 89] | 0.095 µM | 0.036 µM |  |  |  |
| O=C(Nc1ccc(-c2cc3cc(F)c(-c4nnn[nH]4)cc3n2C2CCC2)cc1)C(=O)Nc1ccc(N2CCC3(CCC(O)C3)C2)cc1 (stereo not drawn) [Example 92] | 0.123 µM | 0.098 µM |  |  |  |
| CC1(O)CC2(CCN(c3ccc(NC(=O)C(=O)Nc4ccc(-c5cc6cc(F)c(-c7nnn[nH]7)cc6n5C5CCC5)cc4)cc3)CC2)C1 [Example 94] | 0.237 µM | 0.041 µM |  |  |  |
| O=C(Nc1ccc(-c2cc3cc(F)c(-c4nnn[nH]4)cc3n2C2CCC2)cc1)C(=O)Nc1ccc(N2CCC3(CC2)CC(CO)C3)cc1 [Example 96] | > 10 µM | 0.103 µM |  |  |  |
| CC1(n2c(-c3ccc(NC(=O)C(=O)Nc4ccc(N5CCC6(CC5)CC(CO)C6)cc4)cc3)cc3cc(F)c(-c4nnn[nH]4)cc32)CCC1 [Example 97] | 0.305 µM | 0.11 µM |  |  |  |
| O=C(Nc1ccc(-c2cc3cc(F)c(-c4nnn[nH]4)cc3n2C2CCC2)cc1)C(=O)Nc1ccc(N2CCC3(CCC(O)C3)CC2)cc1 (stereo not drawn) [Example 100] | 0.126 µM | 0.038 µM |  |  |  |
| O=C(Nc1ccc(-c2cc3cc(F)c(-c4nnn[nH]4)cc3n2C2CCC2)cc1)C(=O)Nc1ccc(N2CCC3(CCC(O)CC3)CC2)cc1 [Example 108] | 0.115 µM | 0.034 µM |  |  |  |
| CC1(O)CCC2(CCN(c3ccc(NC(=O)C(=O)Nc4ccc(-c5cc6cc(F)c(-c7nnn[nH]7)cc6n5C5CCC5)cc4)cc3)CC2)CC1 [Example 110] | 0.133 µM | 0.086 µM |  |  |  |
| O=C(Nc1ccc(-c2cc3cc(F)c(-c4nnn[nH]4)cc3n2C2CCC2)cc1)C(=O)Nc1ccc(N2CC3COCC3C2)cc1 (stereo not drawn) [Example 114] | 0.156 µM | 0.078 µM |  |  |  |
| O=C(Nc1ccc(-c2cc3cc(F)c(-c4nnn[nH]4)cc3n2C2CCC2)cc1)C(=O)Nc1ccc(N2CC3CC(O)CC3C2)cc1 (stereo not drawn) [Example 116] | 0.263 µM | 0.067 µM |  |  |  |

Source: patent publication EP4741383A1, “COMPOUND AND USE THEREOF AS ANTI-CANCER DRUG” (Tyligand Bioscience (Shanghai) Limited, priority 2023, dated 2025)
